Assay results: patent US20210195892A1, “COMPOSITION AND METHOD FOR MICROBIAL CONTROL ON MATERIAL SURFACES” (Microban Products Company, priority 2019, published 2021)
Counter-ions that a name gives are not always drawn.

Columns and labels:
Aspergillus niger (An) = assay: ASTM E2180 protocol, fungus; format: cell-based
[1] = Thermogravimetric analysis (TGA) at 10° C./min; format: physicochemical; settings: for temperature at which volatization started: TGA 10° C./min, FIG. 2
bacteria = assay: Antibacterial efficacy of treated PP plaques (ISO 22196); format: cell-based; settings: for bacterial efficacy per the ISO 22196 test: salts alone in PP, any active concentration up to 1%
Protocol: In addition to processing at 200° C., samples were run with PP at 250° C. to simulate the use of these GRAS acids in polymers that process at higher temperatures than polypropylene. Samples were also run using extended residence times in the injection molding machine (from the normal 30 second residence time to 120 seconds residence time) to simulate a process with a longer cycle time that would hold the polymer material at temperature for an extended period of time—the extended cycle were run at both 200° C. and 240° C.

O=C(O)c1ccccc1 [GBA, benzoic acid]
reduction in fungal growth (Aspergillus niger (An); incorporated into EVA): over 90% | reductions in fungal growth (Aspergillus niger (An); incorporated into PE): over 99% | temperature at which volatization started [1]: approximately 100 °C

O=C(O)CC(O)(CC(=O)O)C(=O)O [GCA, citric acid]
temperature at which volatization started [1]: 200 °C | antibacterial efficacy (bacteria; PP test plaques at 0.5% and 1% active level): good at the higher level but fell off at the lower level

C/C=C/C=C/C(=O)[O-].[K+] [GKS, potassium sorbate]
bacterial efficacy per the ISO 22196 test (bacteria): no significant bacterial efficacy

O=C([O-])c1ccccc1.[Na+] [GNB, sodium benzoate]
bacterial efficacy per the ISO 22196 test (bacteria): no significant bacterial efficacy

O=C(O)CC(O)(CC(=O)O)C(=O)O [GNC, sodium citrate]
weight loss in TGA ([1]; TGA 10° C./min up to 275° C., attributed to water content): approximately 10% | bacterial efficacy per the ISO 22196 test (bacteria): no significant bacterial efficacy

C/C=C/C=C/C(=O)O [GSA, sorbic acid]
temperature at which volatization started [1]: approximately 100 °C | efficacy as low as (level in PP) (bacteria; further experiments, PP): 1000 ppm
